Like-named read-outs stand apart in the source and are kept apart here.
What was measured:
[1] = biological target: T1, α-Glucosidase (Saccharomyces cerevisiae, EC3.2.1.20) (Saccharomyces cerevisiae, UniProt P53341); experiment: biochemical; assay type: biochemical
T1 construct: purchased Sigma-Aldrich
Description: α-Glucosidase (Saccharomyces cerevisiae, EC3.2.1.20, 20 U/mg) and the substrate, […] (p-NPG) were purchased from Sigma-Aldrich, and the assay was performed exactly according to our previous report[34],[35].

α-glucosidase [2] = biological target: T2, α-glucosidase (Saccharomyces cerevisiae, UniProt P53341); experiment: Enzyme kinetic studies (Lineweaver–Burk plot, secondary plot); assay type: biochemical
T2 construct: purchased Sigma-Aldrich
T2 sequence (P53341 whole entry): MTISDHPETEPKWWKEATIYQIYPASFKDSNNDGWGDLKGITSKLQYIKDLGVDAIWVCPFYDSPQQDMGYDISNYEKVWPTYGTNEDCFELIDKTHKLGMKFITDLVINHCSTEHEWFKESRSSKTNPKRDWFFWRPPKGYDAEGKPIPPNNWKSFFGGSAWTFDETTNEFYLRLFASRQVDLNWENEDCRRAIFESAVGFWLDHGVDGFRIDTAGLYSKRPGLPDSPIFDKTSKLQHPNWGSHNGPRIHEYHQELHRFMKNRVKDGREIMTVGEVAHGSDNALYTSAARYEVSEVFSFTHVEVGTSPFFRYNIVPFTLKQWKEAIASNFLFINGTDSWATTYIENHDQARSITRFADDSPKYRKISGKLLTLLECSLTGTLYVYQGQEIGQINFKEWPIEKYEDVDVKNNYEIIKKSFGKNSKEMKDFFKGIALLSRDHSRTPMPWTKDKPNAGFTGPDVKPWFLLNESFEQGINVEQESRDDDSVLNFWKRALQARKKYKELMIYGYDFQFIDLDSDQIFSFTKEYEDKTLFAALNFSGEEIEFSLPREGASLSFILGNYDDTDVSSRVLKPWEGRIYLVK
Description: A Lineweaver–Burk plot was generated to identify the type of inhibition and Km value was determined from the plot between the reciprocal of the substrate concentration (1/[S]) and reciprocal of enzyme rate (1/V) over various inhibitor concentrations. Experimental Ki value was constructed by secondary plots of the inhibitor concentration [I] versus Km.

α-glucosidase [3] = details: cited from earlier work; for fold more potent than acarbose: literature coumarin derivatives versus acarbose
yeast α-glucosidase = biological target: yeast α-glucosidase; set-up: method as in PMID 26637946; details: compound D and its acarbose control; cited from earlier work
[4] = supplement sheet IC50 values, unrounded, unit inferred

T1 sequence (P53341 whole entry): as above

| melting point [°C] | IC50 [1] [µM] | IC50 [1, 4] [µM] | Structure (SMILES) | also measured |
| --- | --- | --- | --- | --- |
| 195 to 197 | 30.6 ± 0.4 | 30.6 | O=C(Oc1ccc2ccc(=O)oc2c1)c1ccc2[nH]c(-c3ccc(F)cc3)nc2c1 [Compound 5b, 2-Oxo-2H-chromen-7-yl 2-(4-fluorophenyl)-1H-benzo[d]imidazole-5-carboxylate] | – |
| 180 to 182 | 26.9 ± 1.1 | 26.9 | O=C(Oc1ccc2ccc(=O)oc2c1)c1ccc2[nH]c(-c3ccc(Cl)cc3)nc2c1 [Compound 5c, 2-Oxo-2H-chromen-7-yl 2-(4-chlorophenyl)-1H-benzo[d]imidazole-5-carboxylate] | – |
| 179 to 181 | 22.9 ± 0.2 | 23 | O=C(Oc1ccc2ccc(=O)oc2c1)c1ccc2[nH]c(-c3ccc(Br)cc3)nc2c1 [Compound 5d, 2-Oxo-2H-chromen-7-yl 2-(4-bromophenyl)-1H-benzo[d]imidazole-5-carboxylate] | – |
| 189 to 191 | 34.7 ± 0.7 | 34.7 | O=C(Oc1ccc2ccc(=O)oc2c1)c1ccc2[nH]c(-c3ccccc3Cl)nc2c1 [Compound 5e, 2-Oxo-2H-chromen-7-yl 2-(2-chlorophenyl)-1H-benzo[d]imidazole-5-carboxylate] | – |
| 172 to 174 | 25.2 ± 0.5 | 25.2 | O=C(Oc1ccc2ccc(=O)oc2c1)c1ccc2[nH]c(-c3cccc(Br)c3)nc2c1 [Compound 5f, 2-Oxo-2H-chromen-7-yl 2-(3-bromophenyl)-1H-benzo[d]imidazole-5-carboxylate] | – |
| 201 to 203 | 46.7 ± 0.2 | 46.7 | O=C(Oc1ccc2ccc(=O)oc2c1)c1ccc2[nH]c(-c3ccc(F)cc3F)nc2c1 [Compound 5g, 2-Oxo-2H-chromen-7-yl 2-(2,4-difluorophenyl)-1H-benzo[d]imidazole-5-carboxylate] | – |
| 182 to 184 | 45.2 ± 0.2 | 45.3 | O=C(Oc1ccc2ccc(=O)oc2c1)c1ccc2[nH]c(-c3cccc(Cl)c3Cl)nc2c1 [Compound 5h, 2-Oxo-2H-chromen-7-yl 2-(2,3-dichlorophenyl)-1H-benzo[d]imidazole-5-carboxylate] | – |
| 193 to 195 | 44.9 | 44.9 | Cc1ccc(-c2nc3cc(C(=O)Oc4ccc5ccc(=O)oc5c4)ccc3[nH]2)cc1 [Compound 5i, 2-Oxo-2H-chromen-7-yl 2-(p-tolyl)-1H-benzo[d]imidazole-5-carboxylate] | – |
| 169 to 171 | 40.3 ± 0.5 | – | COc1ccc(-c2nc3cc(C(=O)Oc4ccc5ccc(=O)oc5c4)ccc3[nH]2)cc1 [Compound 5j, 2-Oxo-2H-chromen-7-yl 2-(4-methoxyphenyl)-1H-benzo[d]imidazole-5-carboxylate] | – |
| 182 to 184 | 40.9 ± 1.1 | 40.9 | Cc1c(Cl)cccc1-c1nc2cc(C(=O)Oc3ccc4ccc(=O)oc4c3)ccc2[nH]1 [Compound 5m, 2-Oxo-2H-chromen-7-yl 2-(3-chloro-2-methylphenyl)-1H-benzo[d]imidazole-5-carboxylate] | – |
| – | – | – | O=C(N/N=C/c1ccccc1O)c1cc2ccccc2oc1=O [Compound A] | IC50 (α-glucosidase [3]; Fig. 1, compound A and its acarbose control): 1.1 µM; fold more potent than acarbose (α-glucosidase [3]): 35.8 fold |
| – | – | – | Cc1ccc(/C=C/C(=O)Oc2cc(=O)oc3ccccc23)cc1 [Compound B] | IC50 (α-glucosidase [3]; Fig. 1, compound B and its ursolic acid control): 13 µM |
| – | – | – | C/C(=N\OC(=O)/C=C/c1ccc(Br)cc1)c1cc2ccc(Br)cc2oc1=O [Compound C] | IC50 (α-glucosidase [3]; Fig. 1, compound C and its acarbose control): 2.54 µM; fold more potent than acarbose (α-glucosidase [3]): 252 fold |
| – | – | – | Cc1cc2nc(-c3ccc(C(=O)N/N=C/c4cc(O)c(O)c(O)c4)cc3)[nH]c2cc1C [Compound D] | IC50 (yeast α-glucosidase): 8.4 µM |
| – | – | – | COc1ccc(-c2nc3cc(C(=O)N/N=C/c4cccs4)ccc3[nH]2)cc1 [Compound E] | IC50 (α-glucosidase [3]; Fig. 1, compound E and its acarbose control): 60.1 µM |
| – | – | – | COc1cc(-c2nc3ccccc3[nH]2)ccc1OCC(=O)Nc1ccc(F)cc1 [Compound F] | IC50 (α-glucosidase [3]; Fig. 1, compound F and its acarbose control): 99.6 µM |

| Structure (SMILES) | melting point [°C] | IC50 [1] [µM] | IC50 [1, 4] [µM] | also measured |
| --- | --- | --- | --- | --- |
| O=C(Oc1ccc2ccc(=O)oc2c1)c1ccc2[nH]c(-c3ccccc3)nc2c1 [Compound 5a, 2-Oxo-2H-chromen-7-yl 2-phenyl-1H-benzo[d]imidazole-5-carboxylate] | 180 to 183 | 50 ± 0.8 | 50 | fold better than acarbose ([1]; ratio of IC50 values versus acarbose): approximately 15 fold |
| O=C(Oc1ccc2ccc(=O)oc2c1)c1ccc2[nH]c(-c3ccccc3O)nc2c1 [Compound 5k, 2-Oxo-2H-chromen-7-yl 2-(2-hydroxyphenyl)-1H-benzo[d]imidazole-5-carboxylate] | 187 to 189 | 10.8 ± 0.1 | – | inhibition pattern (α-glucosidase [2]; Lineweaver–Burk plot, Km increased, Vmax unchanged): competitive inhibition pattern; Ki (α-glucosidase [2]; from plot of Km versus inhibitor concentration, substrate p-nitrophenyl α-D-glucopyranoside 1–16 mM, read-out: inhibition constant (Ki)): 10.4 µM; fold more potent than compound 5d ([1]; IC50 comparison 5k versus 5d): twofold |
| Cc1c(-c2nc3cc(C(=O)Oc4ccc5ccc(=O)oc5c4)ccc3[nH]2)cccc1[N+](=O)[O-] [Compound 5l, 2-Oxo-2H-chromen-7-yl 2-(2-methyl-3-nitrophenyl)-1H-benzo[d]imidazole-5-carboxylate] | 194 to 196 | 119.5 ± 0.1 | 119 | fold decrease of inhibitory activity versus compound 5m ([1]; 3-chloro replaced with 3-nitro): three folds |
